Results reported in US20180326014A1, “PHARMACEUTICAL FORMULATIONS FOR THE TREATMENT OF DIABETES” (KALEYDE PHARMACEUTICALS AG, priority 2016, published 2018).
Where two headings read alike, the source gives them in different places. Where a SMILES comes first, the peptide text is derived from it. [ ]: non-standard residue; d: D form. ξ: configuration not given here. ξαMeF = CC(N)(Cc1ccccc1)C(=O)O; Aib = CC(C)(N)C(=O)O

Legend:
[1] = test system: DP BB rats (Diabetes-Prone BioBreeding rats); conditions: rat, in vivo, sc
Description: (§1) The efficacy of formulation 3, described in example 1, in the treatment of the retinal vascular alterations associated with diabetes, was evaluated using as experimental model DP BB rats (Diabetes-Prone BioBreeding rats, M&B Bomholtvej, Denmark), analyzing the retinal function of the treated animals by electroretinography (ERG) and the state of vascularization of the retina by quantitative immunohistochemical techniques.
(§2) 60 3-week old DP BB rats of both sexes (30 male and 30 female) were used. […] The animals were observed from the 3rd to 30th weeks of life, monitoring various parameters, including weight, blood glucose, urine glucose and blood insulin. In particular, the onset of diabetes was evaluated by measuring blood glucose with the One-Touch profile (LifeScan, Milpitas, Calif.) twice a week, and every day from the 13th week; urine glucose with Clinistix (Bayer Diagnostica, Basingstoke, United Kingdom), twice a week; insulin levels twice a week, with an RIA Kit (BioRad, Milan, Italy). […]
(§3) The retinal functionality of the animals in each group was evaluated by ERG before euthanasia and removal of the retinas for quantitative histochemical analysis.
(§4) Retinal functionality was evaluated by ERG, using a scotopic full-field ERG. […] The wave amplitude was measured at a fixed time of 8 ms from the stimulus, to minimise non-photoreceptor contamination. […]

[2] = test system: SD-STZ rats (Sprague-Dawley rats rendered diabetic with streptozotocin); assay: Retinal function by ERG (SOPs) in rats rendered diabetic with streptozotocin; conditions: daily administration, peptide groups C and E, insulin alone printed as groups B and D
Description: (§5) The severity of the diabetic state was evaluated by daily monitoring of body weight, clinical signs and blood glucose levels.
(§6) The dose of STZ was prepared at the time of use by dissolving the compound in 0.05M citrate buffer, pH 4.5. For the STZ administration, the animals were placed in the dorsal position and the injection site was disinfected and buffered with an iodine-povidone solution; the i.p. injection was performed in the caudal abdominal cavity of the rats, using a sterile 25 g needle. The severity of the diabetes caused by administration of STZ was monitored daily, evaluating blood glucose levels with the One-Touch profile (LifeScan, Milpitas, Calif.), every day; urine glucose with Clinistix (Bayer Diagnostica, Basingstoke, United Kingdom), twice a week; insulin levels, twice a week, with an RIA Kit (BioRad, Milan, Italy).
(§7) 5) subcutaneously twice a day. The retinal functionality of the animals in each group was evaluated by ERG before euthanasia and removal of the retinas for quantitative histochemical analysis.
(§8) Retinal function was evaluated by ERG, as reported in detail in example 2.
(§9) The study design involved 5 groups of 10 rats, 5 male and 5 female. […]

[3] = test system: DP BB rats (Diabetes-Prone BioBreeding rats); assay: CD31 immunohistochemistry and quantitative analysis of neovascular tuft formations in retinas of DP BB rats; type: in vivo, rat; conditions: daily s.c., peptide groups E, F, insulin alone group C, peptide+insulin group D
Description: The state of vascularization of the retina of the treated animals was studied on the whole retinas, using antibodies directed against CD31 (BD Biosciences, San Diego, Calif., USA), an important marker for the endothelial cells. The immunohistochemical tests on the retinas and quantitative analysis of the neovascular tuft formations, vascular and avascular areas, were conducted as reported in the literature (Exp Eye Res. 2013; 111:27-35; Invest Ophthalmol Vis Sci. 2012; 53:2181-2192; J Neurochem. 2011; 119:1317-1329; Invest Ophthalmol Vis Sci. 2006; 47:2125-2134). […]
The retinal vascularization images were acquired with an epifluorescence microscope (Eclipse E800; Nikon Corp., Amsterdam, Netherlands) using a digital camera converter (SD-Filc camera; Nikon Corp.). The electronic images were processed with image-processing software (Adobe Photoshop; Adobe Systems, Inc., Mountain View, Calif., USA) to allow quantitative analysis of the results. For each experimental condition, the quantitative data originated from 20 retinas of 10 different rats.
Table 3—Immunohistochemical tests on retinas and quantitative analysis of neovascular tuft formations. […] The electronic images were processed with image-processing software (Adobe Photoshop; Adobe Systems, Inc., Mountain View, Calif., USA) to allow quantitative analysis of the results. […]

[4] = test system: DP BB rats (Diabetes-Prone BioBreeding rats); assay: Retinal function by scotopic full-field ERG (SOPs) in diabetes-prone BioBreeding rats; conditions: daily s.c., peptide groups E, F, insulin alone group C, peptide+insulin group D
Description: as §1, §2, §3, §4

[5] = test system: SD-STZ rats (Sprague-Dawley rats rendered diabetic with streptozotocin); assay: Immunohistochemistry and quantitative analysis of neovascular tuft formations in retinas of SD-STZ rats; type: in vivo, rat; conditions: daily administration, peptide groups C and E, insulin alone group D
From the text: 5) subcutaneously twice a day.
For each experimental condition, the quantitative data originated from 20 retinas of 10 different rats.
Table 5—Immunohistochemical tests on retinas and quantitative analysis of neovascular tuft formations. The state of vascularization of the retina of the treated animals was studied as reported in example 2. For each experimental condition, the quantitative data originated from 20 retinas of 10 different rats. […] The areas of neovascularization are expressed as the ratio between the area of neovascularization present in the animals which are not yet diabetic (Group A≈0.1% of the retinal area) and that of the group. […] 5) subcutaneously twice a day.

[6] = test system: SD-STZ rats (Sprague-Dawley rats rendered diabetic with streptozotocin); conditions: rat, in vivo
Description: as §5, §6, §7, §8, §9

## CC(=O)N[C@@H](CCCNC(=N)N)C(=O)NC(C)(C)C(=O)N[C@@H](CCCNC(=N)N)C(=O)NC(C)(Cc1ccccc1)C(N)=O (stereo partly drawn) [Ac-Arg-Aib-Arg-α(Me)Phe-NH2] (Ac-R[Aib]R[ξαMeF]-NH2)
[1]
  effect on retinal vascular damage / eyesight, in words (Table 2): prevent the formation of retinal vascular damage

## insulin
[2]
  effect on retinal vascular damage, in words (Table 4): gives rise to major retinal vascular damage
[3]
  effect on retinal vascular damage / NTA, in words (Table 3): causes a major increase in NTA
[4]
  effect on retinal vascular damage / eyesight, in words (Table 2): causes major retinal vascular damage
[5]
  effect on retinal vascular damage / NTA, in words (Table 5): leads to a major increase in NTA

## CC(=O)NC(C)(C)C(=O)N[C@@H](CCCNC(=N)N)C(=O)NC(C)(C)C(=O)N[C@@H](CCCNC(=N)N)C(=O)NC(C)(Cc1ccccc1)C(N)=O (stereo partly drawn) [Ac-Aib-Arg-Aib-Arg-α(Me)Phe-NH2] (Ac-[Aib]R[Aib]R[ξαMeF]-NH2)
[6]
  effect on retinal vascular damage, in words (Table 4): prevent ab initio the formation of retinal vascular damage
